Where two headings read alike, the source gives them in different places.
Columns and labels:
[1] = target: influenza virus polymerase (Influenza A virus, UniProt P03433); assay: cell-based; assay type: cell-based, influenza virus A/PR/8/34
[2] = target: Pandemic H1N1 N-terminal PA endonuclease (PAN) (Influenza A virus, UniProt C3W5S0); assay: FRET-based; assay type: biochemical
[3] = Inhibition of polymerase activity EC50
[4] = read-out: Inhibition of polymerase activity EC50

| Compound | EC50 [1, 3] [µM] | IC50 [2] [µM] | other results |
| --- | --- | --- | --- |
| O=C1c2c(ccc(O)c2O)CN1Cc1ccc(O)cc1 [Compound 17, 2-(4-hydroxybenzyl)-6,7-dihydroxy-isoindolin-1-one] | 4.2 | 0.023 to 0.046 | Fold increase in EC50 compared to wild-type [1]: 1.0 fold |
| O=C1c2c(ccc(O)c2O)CN1Cc1ccccc1 [Compound 14, 2-benzyl-6,7-dihydroxyisoindolin-1-one] | 12 | 0.023 to 0.046 | – |
| O=C1c2c(ccc(O)c2O)CN1CCc1ccc(O)cc1 [Compound 23, 2-(4-hydroxyphenethyl)-6,7-dihydroxy-isoindolin-1-one] | – | – | EC50 [1, 4]: 19 µM |
| O=C1c2c(ccc(O)c2O)CN1Cc1ccc2ccccc2c1 [Compound 21, 2-(naphthalen-2-ylmethyl)-6,7-dihydroxy-isoindolin-1-one] | 5.4 | 0.03 | – |
| O=C1c2c(ccc(O)c2O)CN1Cc1ccc(F)cc1 [Compound 18, 2-(4-fluorobenzyl)-6,7-dihydroxyisoindolin-1-one] | 8.2 | 0.023 to 0.046 | – |
| baloxavir acid [BXA] | – | – | Fold increase in EC50 compared to wild-type [1]: 1.0 fold; EC50 [1, 4]: 0.0016 µM |
| NC(=O)c1ncn([C@@H]2O[C@H](CO)[C@@H](O)[C@H]2O)n1 [Ribavirin, ribavirin] | 11 | – | – |
| O=C1c2c(ccc(O)c2O)CN1Cc1cccc2ccccc12 [Compound 22, 2-(naphthalen-1-ylmethyl)-6,7-dihydroxy-isoindolin-1-one] | 26 | – | – |
| O=C1c2c(ccc(O)c2O)CN1Cc1ccc([N+](=O)[O-])cc1 [Compound 20, 2-(4-nitrobenzyl)-6,7-dihydroxy-isoindolin-1-one] | 28 | 0.023 to 0.046 | – |
| O=C1c2c(ccc(O)c2O)CN1Cc1ccc(C(F)(F)F)cc1 [Compound 19, 2-(4-(trifluoromethyl)benzyl)-6,7-dihydroxy-isoindolin-1-one] | 19 | – | Reduction of PAN inhibitory activity compared to the 4-F analogue 18 ([2]; factor, relative to 18): 9 fold |
| Cc1ccc(CN2Cc3ccc(O)c(O)c3C2=O)cc1 [Compound 16, 2-(4-methylbenzyl)-6,7-dihydroxy-isoindolin-1-one] | – | – | EC50 [1, 4]: 4.1 µM |
| O=C1c2c(ccc(O)c2O)CN1Cc1ccc(F)c(Cl)c1 [Compound 15, 2-(3-chloro-4-fluorobenzyl)-6,7-dihydroxyisoindolin-1-one] | 3.6 | 0.023 to 0.046 | EC50/IC50 ratio (cellular versus enzyme assay) [1]: 145 |

Reference: publication PMC8838982 (Bioorganic chemistry, 2021)
